± gives the expanded uncertainty stated by the source.
Key:
[1] = relative permittivity at various frequencies (dimensionless); conditions: 101.3 kPa, Liquid, Frequency=3 MHz, Bridge type OH-301 made in Radelcis, Hungary
[2] = relative permittivity at various frequencies (dimensionless); xn = mol fraction of the nth substance listed; conditions: 101.3 kPa, Liquid, Frequency=3 MHz, Bridge type OH-301 made in Radelcis, Hungary

Structure (SMILES): COCCO [2-methoxyethan-1-ol]
- relative permittivity ([1]; 293.15 K): 17.38 ± 0.04
- relative permittivity ([1]; 298.15 K): 16.95 ± 0.04
- relative permittivity ([1]; 303.15 K): 16.56 ± 0.04

Structure (SMILES): COCCO [2-methoxyethan-1-ol] + OCCOCCO
- relative permittivity ([2]; 293.15 K, x1 = 1): 17.38 ± 0.04
- relative permittivity ([2]; 298.15 K, x1 = 1): 16.95 ± 0.04
- relative permittivity ([2]; 303.15 K, x1 = 1): 16.56 ± 0.04

Structure (SMILES): COCCO [2-methoxyethan-1-ol] + OCCOCCOCCO
- relative permittivity ([2]; 293.15 K, x1 = 1): 17.38 ± 0.04
- relative permittivity ([2]; 298.15 K, x1 = 1): 16.95 ± 0.04
- relative permittivity ([2]; 303.15 K, x1 = 1): 16.56 ± 0.04

Structure (SMILES): COCCO [2-methoxyethan-1-ol] + OCCOCCOCCOCCO
- relative permittivity ([2]; 293.15 K, x1 = 1): 17.38 ± 0.04
- relative permittivity ([2]; 298.15 K, x1 = 1): 16.95 ± 0.04
- relative permittivity ([2]; 303.15 K, x1 = 1): 16.56 ± 0.04

Structure (SMILES): OCCOCCO [diethylene glycol]
- relative permittivity ([1]; 293.15 K): 31.81 ± 0.04
- relative permittivity ([1]; 298.15 K): 30.95 ± 0.04
- relative permittivity ([1]; 303.15 K): 30.03 ± 0.04

Structure (SMILES): OCCOCCO [diethylene glycol] + COCCO
- relative permittivity ([2]; 293.15 K, x2 = 0): 31.81 ± 0.04
- relative permittivity ([2]; 293.15 K, x2 = 0.0414): 31.69 ± 0.04
- relative permittivity ([2]; 293.15 K, x2 = 0.0999): 31.49 ± 0.04
- relative permittivity ([2]; 293.15 K, x2 = 0.2077): 31.23 ± 0.04
- relative permittivity ([2]; 293.15 K, x2 = 0.3001): 31.03 ± 0.04
- relative permittivity ([2]; 293.15 K, x2 = 0.4094): 30.32 ± 0.04
- relative permittivity ([2]; 293.15 K, x2 = 0.4998): 29.56 ± 0.04
- relative permittivity ([2]; 293.15 K, x2 = 0.5994): 28.32 ± 0.04
- relative permittivity ([2]; 293.15 K, x2 = 0.6996): 26.65 ± 0.04
- relative permittivity ([2]; 293.15 K, x2 = 0.7996): 24.25 ± 0.04
- relative permittivity ([2]; 293.15 K, x2 = 0.9018): 21.43 ± 0.04
- relative permittivity ([2]; 293.15 K, x2 = 0.9463): 19.98 ± 0.04
- relative permittivity ([2]; 298.15 K, x2 = 0): 30.95 ± 0.04
- relative permittivity ([2]; 298.15 K, x2 = 0.0414): 30.71 ± 0.04
- relative permittivity ([2]; 298.15 K, x2 = 0.0999): 30.39 ± 0.04
- relative permittivity ([2]; 298.15 K, x2 = 0.2077): 29.85 ± 0.04
- relative permittivity ([2]; 298.15 K, x2 = 0.3001): 29.41 ± 0.04
- relative permittivity ([2]; 298.15 K, x2 = 0.4094): 28.67 ± 0.04
- relative permittivity ([2]; 298.15 K, x2 = 0.4998): 27.81 ± 0.04
- relative permittivity ([2]; 298.15 K, x2 = 0.5994): 26.68 ± 0.04
- relative permittivity ([2]; 298.15 K, x2 = 0.6996): 24.99 ± 0.04
- relative permittivity ([2]; 298.15 K, x2 = 0.7996): 22.78 ± 0.04
- relative permittivity ([2]; 298.15 K, x2 = 0.9018): 20.27 ± 0.04
- relative permittivity ([2]; 298.15 K, x2 = 0.9463): 18.88 ± 0.04
- relative permittivity ([2]; 303.15 K, x2 = 0): 30.03 ± 0.04
- relative permittivity ([2]; 303.15 K, x2 = 0.0414): 29.85 ± 0.04
- relative permittivity ([2]; 303.15 K, x2 = 0.0999): 29.49 ± 0.04
- relative permittivity ([2]; 303.15 K, x2 = 0.2077): 29.01 ± 0.04
- relative permittivity ([2]; 303.15 K, x2 = 0.3001): 28.45 ± 0.04
- relative permittivity ([2]; 303.15 K, x2 = 0.4094): 27.49 ± 0.04
- relative permittivity ([2]; 303.15 K, x2 = 0.4998): 26.61 ± 0.04
- relative permittivity ([2]; 303.15 K, x2 = 0.5994): 25.36 ± 0.04
- relative permittivity ([2]; 303.15 K, x2 = 0.6996): 23.55 ± 0.04
- relative permittivity ([2]; 303.15 K, x2 = 0.7996): 21.64 ± 0.04
- relative permittivity ([2]; 303.15 K, x2 = 0.9018): 19.39 ± 0.04
- relative permittivity ([2]; 303.15 K, x2 = 0.9463): 18.25 ± 0.04

Structure (SMILES): OCCOCCOCCO [triethylene glycol]
- relative permittivity ([1]; 293.15 K): 23.69 ± 0.04
- relative permittivity ([1]; 298.15 K): 23.07 ± 0.04
- relative permittivity ([1]; 303.15 K): 22.43 ± 0.04

Structure (SMILES): OCCOCCOCCO [triethylene glycol] + COCCO
- relative permittivity ([2]; 293.15 K, x2 = 0): 23.69 ± 0.04
- relative permittivity ([2]; 293.15 K, x2 = 0.05): 23.69 ± 0.04
- relative permittivity ([2]; 293.15 K, x2 = 0.1): 23.7 ± 0.04
- relative permittivity ([2]; 293.15 K, x2 = 0.2003): 23.72 ± 0.04
- relative permittivity ([2]; 293.15 K, x2 = 0.2999): 23.76 ± 0.04
- relative permittivity ([2]; 293.15 K, x2 = 0.4009): 23.79 ± 0.04
- relative permittivity ([2]; 293.15 K, x2 = 0.5): 23.82 ± 0.04
- relative permittivity ([2]; 293.15 K, x2 = 0.5999): 23.77 ± 0.04
- relative permittivity ([2]; 293.15 K, x2 = 0.7): 23.62 ± 0.04
- relative permittivity ([2]; 293.15 K, x2 = 0.8): 22.92 ± 0.04
- relative permittivity ([2]; 293.15 K, x2 = 0.9): 21.26 ± 0.04
- relative permittivity ([2]; 293.15 K, x2 = 0.9499): 19.75 ± 0.04
- relative permittivity ([2]; 298.15 K, x2 = 0): 23.07 ± 0.04
- relative permittivity ([2]; 298.15 K, x2 = 0.05): 23.05 ± 0.04
- relative permittivity ([2]; 298.15 K, x2 = 0.1): 23.03 ± 0.04
- relative permittivity ([2]; 298.15 K, x2 = 0.2003): 23.06 ± 0.04
- relative permittivity ([2]; 298.15 K, x2 = 0.2999): 23.07 ± 0.04
- relative permittivity ([2]; 298.15 K, x2 = 0.4009): 23.06 ± 0.04
- relative permittivity ([2]; 298.15 K, x2 = 0.5): 22.95 ± 0.04
- relative permittivity ([2]; 298.15 K, x2 = 0.5999): 22.76 ± 0.04
- relative permittivity ([2]; 298.15 K, x2 = 0.7): 22.3 ± 0.04
- relative permittivity ([2]; 298.15 K, x2 = 0.8): 21.54 ± 0.04
- relative permittivity ([2]; 298.15 K, x2 = 0.9): 19.93 ± 0.04
- relative permittivity ([2]; 298.15 K, x2 = 0.9499): 18.81 ± 0.04
- relative permittivity ([2]; 303.15 K, x2 = 0): 22.43 ± 0.04
- relative permittivity ([2]; 303.15 K, x2 = 0.05): 22.42 ± 0.04
- relative permittivity ([2]; 303.15 K, x2 = 0.1): 22.41 ± 0.04
- relative permittivity ([2]; 303.15 K, x2 = 0.2003): 22.48 ± 0.04
- relative permittivity ([2]; 303.15 K, x2 = 0.2999): 22.48 ± 0.04
- relative permittivity ([2]; 303.15 K, x2 = 0.4009): 22.44 ± 0.04
- relative permittivity ([2]; 303.15 K, x2 = 0.5): 22.35 ± 0.04
- relative permittivity ([2]; 303.15 K, x2 = 0.5999): 21.91 ± 0.04
- relative permittivity ([2]; 303.15 K, x2 = 0.7): 21.39 ± 0.04
- relative permittivity ([2]; 303.15 K, x2 = 0.8): 20.43 ± 0.04
- relative permittivity ([2]; 303.15 K, x2 = 0.9): 19.1 ± 0.04
- relative permittivity ([2]; 303.15 K, x2 = 0.9499): 18.14 ± 0.04

— the NIST ThermoML archive (doi:10.1016/j.jct.2006.09.015)
